The numbers were not newly measured in patent US20220211813A1, “METHODS FOR TREATMENT OF NIEMANN-PICK DISEASE TYPE C” (LOMA LINDA UNIVERSITY, priority 2019, published 2022), which cites them from elsewhere.

In this data set the test system is IFN-γ. The following applies: as described in Pododlin et al. J Pharmacol Exp Ther. 312(1):373-81, 2005.

On to `NC(=O)Nc1sc(-c2ccc(F)cc2)cc1C(N)=O` [TPCA-1], for which the “blocks IFN-γ” value is “about 50%”.
